In US20240425523A1, “Compounds for the Degradation of EGFR Kinase” (Beigene Switzerland GMBH, priority 2023, published 2024):

Tests used:
Format in all cases: cell-based
[1] = biological target: T1, p-EGFR L858R (BaF3-L858R cells) (Homo sapiens, UniProt P00533, L858R); assay: Cell p-EGFR inhibition assay, HTRF, BaF3-L858R cells; details: 16 h treatment; for Imax (%): maximum percentage of pEGFR inhibition; for IC50: pEGFR inhibition
T1 construct: host or cells: BaF3
Summary of the method: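 BaF3-L858R cells treated 16 h at 37 °C, 5% CO2 with compound from 10 uM top, 5-fold dilutions, 8 doses, in 0.1% DMSO medium. Lysates read overnight by HTRF p-EGFR antibodies; IC50 fitted to four-parameter curve against DMSO high control.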

[2] = biological target: p-EGFR Del19/C797S (H1975-clone #23 cells) (Homo sapiens, UniProt P00533); assay: Cell p-EGFR inhibition assay, HTRF, H1975-clone#23 (DEL19/C797S) cells; details: 16 h treatment; for Imax (%): maximum percentage of pEGFR inhibition; for IC50: pEGFR inhibition
Summary of the method: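 Phospho-EGFR read by overnight HTRF on lysates, normalized to DMSO-treated high control; IC50, Hill slope and Imax fitted. Compounds were applied for 16 h (10 uM top, 5-fold steps, 8 doses) to an H1975 single clone carrying only exogenous Del19/C797S EGFR after sgRNA knockout of endogenous copies.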

[3] = biological target: T2, EGFR L858R (BaF3-L858R cells) (Homo sapiens, UniProt P00533, L858R); assay: Cell degradation of EGFR, HTRF assay, BaF3-L858R cells; details: 16 h treatment; for DC50: EGFR degradation; for Dmax: maximum percentage of degradation
T2 construct: host or cells: BaF3
Summary of the method: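 EGFR L858R levels measured by HTRF antibody pair in lysed BaF3-L858R cells after 16 h compound exposure (8-point 5-fold series from 10 uM final, 37° C). Degradation is relative to DMSO-only cells; DC50 fitted with Hill equation, Dmax taken as the largest percent loss.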

[4] = biological target: T3, EGFR-L858R/C797S (H1975-clone #8 cells) (Homo sapiens, UniProt P00533, C797S/L858R); assay: Cell degradation of EGFR, HTRF assay, H1975-clone#8 (L858R/C797S) cells; details: 16 h treatment; for DC50: EGFR degradation; for Dmax: maximum percentage of degradation
T3 construct: expressed in transfected cells; host or cells: H1975 (endogenous EGFR knocked out, clone #8)

With `Cc1cc2cc(n1)-c1cnn(C)c1OC[C@H]1CCC(C1)CN1/C(=N/C2=O)Nc2ccc(N3CCN(C4CCN(c5ccc(NC6CCC(=O)NC6=O)cc5C)CC4)CC3)cc21` (some centres unmarked) [Example 123, 3-((4-(4-(4-((7^1R,7^3S,E)-1^1,2^6-dimethyl-3-oxo-5^2,5^3-dihydro-1^1H,5^1H-9-oxa-4-aza-5(2,1)-benzo[d]imidazola-2(2,4)-pyridina-1(4,5)-pyrazola-7(1,3)-cyclopentanacyclononaphane-5^6-yl)piperazin-1-yl)piperidin-1-yl)-3-methylphenyl)amino)piperidine-2,6-dione] the “Imax (%)” value [1] was 95.3%, the IC50 [1] was 16.3 nM and the “Imax (%)” value [2] was 100.4%. It also gave an IC50 [2] of 0.7 nM, a DC50 [3] of 3.37 nM and a Dmax [3] of 77.1%. It also gave a DC50 [4] of 2.14 nM and a Dmax [4] of 81.6%.
With `Cc1cc2cc(n1)-c1cnn(C)c1OC[C@H]1CCC(C1)CN1/C(=N/C2=O)Nc2ccc(N3CC(N(C)C4CCN(c5cc(F)c([C@H]6CCC(=O)NC6=O)c(F)c5)CC4)C3)cc21` [Example 124, (R)-3-(4-(4-((1-((7^1R,7^3S,E)-1^1,2^6-dimethyl-3-oxo-5^2,5^3-dihydro-1^1H,5^1H-9-oxa-4-aza-5(2,1)-benzo[d]imidazola-2(2,4)-pyridina-1(4,5)-pyrazola-7(1,3)-cyclopentanacyclononaphane-5^6-yl)azetidin-3-yl)(methyl)amino)piperidin-1-yl)-2,6-difluorophenyl)piperidine-2,6-dione] the “Imax (%)” value [1] was 94.6%, the IC50 [1] was 17.1 nM and the “Imax (%)” value [2] was 99.6%. For the same compound, the IC50 [2] was 0.9 nM, the DC50 [3] was 3.58 nM and the Dmax [3] was 71.1%. It also gave a DC50 [4] of 2.3 nM and a Dmax [4] of 67.5%.
`Cc1cc2cc(n1)-c1cnn(C)c1OC[C@H]1CCC(C1)CN1/C(=N/C2=O)Nc2ccc(N3CC4(CCN(C5CCN(c6cc(F)c([C@H]7CCC(=O)NC7=O)c(F)c6)CC5)CC4)C3)cc21` [Example 125, (R)-3-(4-(4-(2-((7^1R,7^3S,E)-1^1,2^6-dimethyl-3-oxo-5^2,5^3-dihydro-1^1H,5^1H-9-oxa-4-aza-5(2,1)-benzo[d]imidazola-2(2,4)-pyridina-1(4,5)-pyrazola-7(1,3)-cyclopentanacyclononaphane-5^6-yl)-2,7-diazaspiro[3.5]nonan-7-yl)piperidin-1-yl)-2,6-difluorophenyl)piperidine-2,6-dione] was tested, and the “Imax (%)” value [1] was 98.6%, the IC50 [1] was 20.7 nM and the “Imax (%)” value [2] was 101.9%. For the same compound, the IC50 [2] was 2.2 nM, the DC50 [3] was 1.37 nM and the Dmax [3] was 77.1%. The DC50 [4] was 2.61 nM and the Dmax [4] was 67.4%.
For `Cc1cc2cc(n1)-c1cnn(C)c1OC[C@H]1CCC(C1)CN1/C(=N/C2=O)Nc2ccc(N3CC4(CCN(C5CN(c6cc(F)c([C@H]7CCC(=O)NC7=O)c(F)c6)C5)CC4)C3)cc21` [Example 126, (R)-3-(4-(3-(2-((7^1R,7^3S,E)-1^1,2^6-dimethyl-3-oxo-5^2,5^3-dihydro-1^1H,5^1H-9-oxa-4-aza-5(2,1)-benzo[d]imidazola-2(2,4)-pyridina-1(4,5)-pyrazola-7(1,3)-cyclopentanacyclononaphane-5^6-yl)-2,7-diazaspiro[3.5]nonan-7-yl)azetidin-1-yl)-2,6-difluorophenyl)piperidine-2,6-dione], the “Imax (%)” value [1] was 99.16%, the IC50 [1] was 13.3 nM and the “Imax (%)” value [2] was 102.92%. The IC50 [2] was 1.44 nM, the DC50 [3] was 2.04 nM and the Dmax [3] was 83.3%. It also gave a DC50 [4] of 1.49 nM and a Dmax [4] of 73.7%.
`COC[C@@H]1CN(c2ccc3c(c2)N2CC4CC[C@H](COc5c(c(C)nn5C)-c5cc(cc(C)n5)C(=O)/N=C/2N3)C4)CCN1CC1CCN(c2cc(F)c([C@H]3CCC(=O)NC3=O)c(F)c2)CC1` [Example 127, (R)-3-(2,6-difluoro-4-(4-(((S)-2-(methoxymethyl)-4-((7^1R,7^3S,E)-1^1,1^3,2^6-trimethyl-3-oxo-5^2,5^3-dihydro-1^1H,5^1H-9-oxa-4-aza-5(2,1)-benzo[d]imidazola-2(2,4)-pyridina-1(4,5)-pyrazola-7(1,3)-cyclopentanacyclononaphane-5^6-yl)piperazin-1-yl)methyl)piperidin-1-yl)phenyl)piperidine-2,6-dione] was tested, and the “Imax (%)” value [1] was 101.7%, the IC50 [1] was 4.89 nM and the “Imax (%)” value [2] was 100.85%. It also gave an IC50 [2] of 4.06 nM, a DC50 [3] of 9.26 nM and a Dmax [3] of 88.8%. It also gave a DC50 [4] of 6.07 nM and a Dmax [4] of 81.9%.
In the case of `Cc1cc2cc(n1)-c1cnn(C)c1OC[C@H]1CCC(C1)CN1/C(=N/C2=O)Nc2ccc(N3CCC(CN4CCC(Nc5cc(F)c([C@H]6CCC(=O)NC6=O)c(F)c5)CC4)CC3)cc21` [Example 131, (R)-3-(4-((1-((1-((7^1R,7^3S,E)-1^1,2^6-dimethyl-3-oxo-5^2,5^3-dihydro-1^1H,5^1H-9-oxa-4-aza-5(2,1)-benzo[d]imidazola-2(2,4)-pyridina-1(4,5)-pyrazola-7(1,3)-cyclopentanacyclononaphane-5^6-yl)piperidin-4-yl)methyl)piperidin-4-yl)amino)-2,6-difluorophenyl)piperidine-2,6-dione], the “Imax (%)” value [1] is reported as 102.8%, the IC50 [1] is reported as 6.4 nM and the “Imax (%)” value [2] is reported as 103.08%. The IC50 [2] was 0.796 nM, the DC50 [3] was 4.84 nM and the Dmax [3] was 69.1%. It also gave a DC50 [4] of 0.867 nM and a Dmax [4] of 72%.
With `Cc1cc2cc(n1)-c1cnn(C)c1OC[C@H]1CCC(C1)CN1/C(=N/C2=O)Nc2ccc(N3CCC(CN4CC(Nc5cc(F)c([C@H]6CCC(=O)NC6=O)c(F)c5)C4)CC3)cc21` [Example 132, (R)-3-(4-((1-((1-((7^1R,7^3S,E)-1^1,2^6-dimethyl-3-oxo-5^2,5^3-dihydro-1^1H,5^1H-9-oxa-4-aza-5(2,1)-benzo[d]imidazola-2(2,4)-pyridina-1(4,5)-pyrazola-7(1,3)-cyclopentanacyclononaphane-5^6-yl)piperidin-4-yl)methyl)azetidin-3-yl)amino)-2,6-difluorophenyl)piperidine-2,6-dione] the “Imax (%)” value [1] was 97.32%, the IC50 [1] was 62.7 nM and the “Imax (%)” value [2] was 100.62%. For the same compound, the IC50 [2] was 0.63 nM, the DC50 [3] was 3.22 nM and the Dmax [3] was 81%. For the same compound, the DC50 [4] was 2.05 nM and the Dmax [4] was 66%.
For `COC[C@@H]1CN(c2ccc3c(c2)N2CC4CC[C@H](COc5c(c(C)nn5C)-c5cc(cc(C)n5)C(=O)/N=C/2N3)C4)CCN1C1CCN(c2c(F)cc(NC3CCC(=O)NC3=O)cc2F)CC1` (stereo partly drawn) [Example 133, 3-((3,5-difluoro-4-(4-((S)-2-(methoxymethyl)-4-((7R,7^3S,E)-1^1,1^3,2^6-trimethyl-3-oxo-5^2,5^3-dihydro-1^1H,5^1H-9-oxa-4-aza-5(2,1)-benzo[d]imidazola-2(2,4)-pyridina-1(4,5)-pyrazola-7(1,3)-cyclopentanacyclononaphane-5^6-yl)piperazin-1-yl)piperidin-1-yl)phenyl)amino)piperidine-2,6-dione], the “Imax (%)” value [1] was 96.88%, the IC50 [1] was 2.88 nM and the “Imax (%)” value [2] was 99.55%. It also gave an IC50 [2] of 1.45 nM, a DC50 [3] of 2.36 nM and a Dmax [3] of 85.7%. For the same compound, the DC50 [4] was 2.94 nM and the Dmax [4] was 86.5%.
In the case of `Cc1cc2cc(n1)-c1c(C)nn(C)c1OC[C@H]1CCC(C1)CN1/C(=N/C2=O)Nc2ccc(N3CCN(CC4CCN(c5cc(F)c([C@H]6CCC(=O)NC6=O)c(F)c5)CC4)[C@H](C)C3)cc21` [Example 134, (R)-3-(2,6-difluoro-4-(4-(((R)-2-methyl-4-((7^1R,7^3S,E)-1^1,1^3,2^6-trimethyl-3-oxo-5^2,5^3-dihydro-1^1H,5^1H-9-oxa-4-aza-5(2,1)-benzo[d]imidazola-2(2,4)-pyridina-1(4,5)-pyrazola-7(1,3)-cyclopentanacyclononaphane-5^6-yl)piperazin-1-yl)methyl)piperidin-1-yl)phenyl)piperidine-2,6-dione], the “Imax (%)” value [1] is reported as 98.27%, the IC50 [1] is reported as 2.49 nM and the “Imax (%)” value [2] is reported as 92.81%. For the same compound, the IC50 [2] was 1.76 nM, the DC50 [3] was 1.89 nM and the Dmax [3] was 85.9%. For the same compound, the DC50 [4] was 4.97 nM and the Dmax [4] was 79.9%.
For `Cc1cc2cc(n1)-c1c(C)nn(C)c1OC[C@H]1CCC(C1)CN1/C(=N/C2=O)Nc2ccc(N3CCN(C4CCN(c5cc(F)c([C@H]6CCC(=O)NC6=O)c(F)c5)CC4)[C@@H](C)C3)cc21` [Example 135, (R)-3-(2,6-difluoro-4-(4-((S)-2-methyl-4-((7^1R,7^3S,E)-1^1,1^3,2^6-trimethyl-3-oxo-5^2,5^3-dihydro-1^1H,5^1H-9-oxa-4-aza-5(2,1)-benzo[d]imidazola-2(2,4)-pyridina-1(4,5)-pyrazola-7(1,3)-cyclopentanacyclononaphane-5^6-yl)piperazin-1-yl)piperidin-1-yl)phenyl)piperidine-2,6-dione], the “Imax (%)” value [1] was 104.33%, the IC50 [1] was 2.32 nM and the “Imax (%)” value [2] was 104.78%. The IC50 [2] was 1.4 nM, the DC50 [3] was 3.08 nM and the Dmax [3] was 89.1%. For the same compound, the DC50 [4] was 1.91 nM and the Dmax [4] was 86.9%.
